According to PMC5218480 (PLoS ONE, 2017):

System: MV-4-11 cells
Test: Gene expression microarray analysis (Affymetrix PrimeView) and GSEA
Format: cell-based, human
Design: RFU PODN (11730768_x_at) / Fold change /veh PODN (11730768_x_at) / RFU LINC00158 (11744669_a_at) / Fold change /veh LINC00158 (11744669_a_at) / RFU DUSP10 (11751237_a_at) / Fold change /veh DUSP10 (11751237_a_at) / RFU ID3 (11757404_x_at) / Fold change /veh ID3 (11757404_x_at) / RFU PLEKHG5 (11737974_s_at) / Fold change /veh PLEKHG5 (11737974_s_at) / RFU LRRC4B (11730491_at) / Fold change /veh LRRC4B (11730491_at) / RFU GIMAP4 (11747438_a_at) / Fold change /veh GIMAP4 (11747438_a_at) / RFU KRT8 (11758183_x_at) / Fold change /veh KRT8 (11758183_x_at) / RFU CNN1 (11734310_a_at) / Fold change /veh CNN1 (11734310_a_at) / RFU VPS37D (11726825_at) / Fold change /veh VPS37D (11726825_at) / RFU C10orf10 (11716522_x_at) / Fold change /veh C10orf10 (11716522_x_at) / RFU KIR2DL2 /// KIR2DL4 /// KIR2DL5A /// KIR2DL5B /// KIR2DS1 /// KIR2DS2 /// KIR2DS3 /// KIR2DS4 /// KIR3DL3 /// KIR3DL3 /// KIR3DS1 (11738374_at) / Fold change /veh KIR2DL2 /// KIR2DL4 /// KIR2DL5A /// KIR2DL5B /// KIR2DS1 /// KIR2DS2 /// KIR2DS3 /// KIR2DS4 /// KIR3DL3 /// KIR3DL3 /// KIR3DS1 (11738374_at) / RFU C1QL1 (11718748_at) / Fold change /veh C1QL1 (11718748_at) / RFU TMPRSS4 (11747572_a_at) / Fold change /veh TMPRSS4 (11747572_a_at) / RFU HAMP (11756126_x_at) / Fold change /veh HAMP (11756126_x_at) / RFU RNFT2 (11725882_a_at) / Fold change /veh RNFT2 (11725882_a_at) / RFU NR4A2 (11747474_a_at) / Fold change /veh NR4A2 (11747474_a_at) / RFU ABCC12 (11746883_a_at) / Fold change /veh ABCC12 (11746883_a_at) / RFU TMEM136 (11760407_x_at) / Fold change /veh TMEM136 (11760407_x_at) / RFU CLDN22 /// WWC2 (11732394_at) / Fold change /veh CLDN22 /// WWC2 (11732394_at) / RFU HLA-DPB1 (11760878_x_at) / Fold change /veh HLA-DPB1 (11760878_x_at) / RFU SPINT1 (11716480_a_at) / Fold change /veh SPINT1 (11716480_a_at) / RFU GAP43 (11754022_s_at) / Fold change /veh GAP43 (11754022_s_at) / RFU A4GNT (11735810_at) / Fold change /veh A4GNT (11735810_at) / RFU PRB3 (11715151_x_at) / Fold change /veh PRB3 (11715151_x_at) / RFU TUBB4B (11761932_at) / Fold change /veh TUBB4B (11761932_at) / RFU CAPN14 (11732068_a_at) / Fold change /veh CAPN14 (11732068_a_at) / RFU TMCC2 (11721928_a_at) / Fold change /veh TMCC2 (11721928_a_at) / RFU IRGQ (11745062_a_at) / Fold change /veh IRGQ (11745062_a_at) / RFU FAM174B (11720279_a_at) / Fold change /veh FAM174B (11720279_a_at) / RFU TMPRSS4 (11748680_a_at) / Fold change /veh TMPRSS4 (11748680_a_at) / RFU FAM212B (11763350_a_at) / Fold change /veh FAM212B (11763350_a_at) / RFU PLEKHG5 (11743358_a_at) / Fold change /veh PLEKHG5 (11743358_a_at) / RFU ZSCAN30 (11745921_a_at) / Fold change /veh ZSCAN30 (11745921_a_at) / RFU CMKLR1 (11741424_a_at) / Fold change /veh CMKLR1 (11741424_a_at) / RFU LOC101060620 /// MAPK8IP1 (11723275_at) / Fold change /veh LOC101060620 /// MAPK8IP1 (11723275_at) / RFU SPTSSB (11747773_x_at) / Fold change /veh SPTSSB (11747773_x_at) / RFU PRSS12 (11739890_at) / Fold change /veh PRSS12 (11739890_at) / RFU BIN1 (11741810_x_at) / Fold change /veh BIN1 (11741810_x_at) / RFU WNT11 (11732464_a_at) / Fold change /veh WNT11 (11732464_a_at) / RFU C10orf10 (11716521_a_at) / Fold change /veh C10orf10 (11716521_a_at) / RFU C5orf56 (11738089_at) / Fold change /veh C5orf56 (11738089_at) / RFU CYB561 (11721691_x_at) / Fold change /veh CYB561 (11721691_x_at) / RFU ANKRD19P (11752326_a_at) / Fold change /veh ANKRD19P (11752326_a_at) / RFU OR2T12 /// OR2T33 /// OR2T8 (11738714_s_at) / Fold change /veh OR2T12 /// OR2T33 /// OR2T8 (11738714_s_at) / RFU VCAN (11748164_a_at) / Fold change /veh VCAN (11748164_a_at) / RFU JSRP1 (11732532_at) / Fold change /veh JSRP1 (11732532_at) / RFU KRTAP10-11 (11738290_x_at) / Fold change /veh KRTAP10-11 (11738290_x_at) / RFU MYO3A (11730013_a_at) / Fold change /veh MYO3A (11730013_a_at) / RFU EBF3 (11725865_a_at) / Fold change /veh EBF3 (11725865_a_at) / RFU CAMK2N1 (11719241_x_at) / Fold change /veh CAMK2N1 (11719241_x_at) / RFU C5orf56 (11738088_a_at) / Fold change /veh C5orf56 (11738088_a_at) / RFU OLFML3 (11715873_a_at) / Fold change /veh OLFML3 (11715873_a_at) / RFU LOC100653217 /// NTM (11731650_a_at) / Fold change /veh LOC100653217 /// NTM (11731650_a_at) / RFU MAPK11 (11762145_a_at) / Fold change /veh MAPK11 (11762145_a_at) / RFU FIZ1 (11724087_x_at) / Fold change /veh FIZ1 (11724087_x_at) / RFU OASL (11726364_x_at) / Fold change /veh OASL (11726364_x_at) / RFU SOX15 (11748057_x_at) / Fold change /veh SOX15 (11748057_x_at) / RFU CD79A (11719716_a_at) / Fold change /veh CD79A (11719716_a_at) / RFU HIST1H1D (11736915_at) / Fold change /veh HIST1H1D (11736915_at) / RFU CASKIN2 (11723855_a_at) / Fold change /veh CASKIN2 (11723855_a_at) / RFU LOC730098 (11760151_x_at) / Fold change /veh LOC730098 (11760151_x_at) / RFU OR4N2 (11742367_at) / Fold change /veh OR4N2 (11742367_at) / RFU PRRT2 (11749266_a_at) / Fold change /veh PRRT2 (11749266_a_at) / RFU SNX32 (11753110_a_at) / Fold change /veh SNX32 (11753110_a_at) / RFU CDHR5 (11726645_a_at) / Fold change /veh CDHR5 (11726645_a_at) / RFU RCAN1 (11760418_a_at) / Fold change /veh RCAN1 (11760418_a_at) / RFU FAM167A (11723789_a_at) / Fold change /veh FAM167A (11723789_a_at) / RFU FAM26E (11764081_at) / Fold change /veh FAM26E (11764081_at) / RFU ISYNA1 (11749810_s_at) / Fold change /veh ISYNA1 (11749810_s_at) / RFU ACY1 (11761880_at) / Fold change /veh ACY1 (11761880_at) / RFU 11764098_at / Fold change /veh 11764098_at / RFU SAMD14 (11745864_x_at) / Fold change /veh SAMD14 (11745864_x_at) / RFU NPB (11741838_a_at) / Fold change /veh NPB (11741838_a_at) / RFU TMPRSS6 (11731388_a_at) / Fold change /veh TMPRSS6 (11731388_a_at) / RFU KRTAP10-2 (11738614_at) / Fold change /veh KRTAP10-2 (11738614_at) / RFU ARHGAP8 /// PRR5-ARHGAP8 (11727945_x_at) / Fold change /veh ARHGAP8 /// PRR5-ARHGAP8 (11727945_x_at) / RFU KRTAP5-7 /// NADSYN1 (11734609_at) / Fold change /veh KRTAP5-7 /// NADSYN1 (11734609_at) / RFU RASL12 (11751679_a_at) / Fold change /veh RASL12 (11751679_a_at) / RFU CDKN2B (11736163_a_at) / Fold change /veh CDKN2B (11736163_a_at) / RFU PRF1 (11729649_at) / Fold change /veh PRF1 (11729649_at) / RFU, ZNF638 /// ZNF638-IT1 / Fold change vs veh, ZNF638 /// ZNF638-IT1 / RFU, PANK3 / Fold change vs veh, PANK3 / RFU, SH3YL1 / Fold change vs veh, SH3YL1 / RFU, ZEB2 / Fold change vs veh, ZEB2 / RFU, NRIP1 / Fold change vs veh, NRIP1 / RFU, PTTG1IP / Fold change vs veh, PTTG1IP / RFU, CAPN2 / Fold change vs veh, CAPN2 / RFU, MED14 / Fold change vs veh, MED14 / RFU, SNORA58 / Fold change vs veh, SNORA58 / RFU, C1orf63 / Fold change vs veh, C1orf63 / RFU, LRRFIP1 / Fold change vs veh, LRRFIP1 / RFU, NDUFAF7 / Fold change vs veh, NDUFAF7 / RFU, SLC12A2 / Fold change vs veh, SLC12A2 / RFU, IBTK / Fold change vs veh, IBTK / RFU, ESF1 / Fold change vs veh, ESF1 / Fold change vs veh, TMEM50B / RFU, TAOK1 / Fold change vs veh, TAOK1 / RFU, ACBD3 / Fold change vs veh, ACBD3 / RFU, TMA16 / Fold change vs veh, TMA16 / RFU, RWDD3 / Fold change vs veh, RWDD3 / RFU, BCAT1 / Fold change vs veh, BCAT1 / RFU, EDEM3 / Fold change vs veh, EDEM3 / RFU, TMEM33 / Fold change vs veh, TMEM33 / RFU, WDR75 / Fold change vs veh, WDR75 / RFU, AHCTF1 / Fold change vs veh, AHCTF1 / RFU, TFRC / Fold change vs veh, TFRC / RFU, ZDHHC17 / Fold change vs veh, ZDHHC17 / RFU, NOM1 / Fold change vs veh, NOM1 / RFU, ARL8B / Fold change vs veh, ARL8B / RFU, ZBTB11 / Fold change vs veh, ZBTB11 / RFU, TAMM41 / Fold change vs veh, TAMM41 / RFU, KIAA1704 /// LOC100996395 / Fold change vs veh, KIAA1704 /// LOC100996395 / RFU, ING1 / Fold change vs veh, ING1 / RFU, TRMT61B / Fold change vs veh, TRMT61B / RFU, FUBP3 / Fold change vs veh, FUBP3 / RFU, TP53 / Fold change vs veh, TP53 / RFU, TNKS2 / Fold change vs veh, TNKS2 / RFU, ZFP14 / Fold change vs veh, ZFP14 / RFU, ACTR2 / Fold change vs veh, ACTR2 / RFU, PPP3R1 / Fold change vs veh, PPP3R1 / RFU, PIK3R1 / Fold change vs veh, PIK3R1 / RFU, HNRNPA1 / Fold change vs veh, HNRNPA1 / RFU, RNF170 / Fold change vs veh, RNF170 / RFU, ZNF28 / Fold change vs veh, ZNF28 / RFU, RNGTT / Fold change vs veh, RNGTT / RFU, OGT / Fold change vs veh, OGT / RFU, BRD1 / Fold change vs veh, BRD1 / RFU, MARS / Fold change vs veh, MARS / RFU, ZNF655 / Fold change vs veh, ZNF655 / RFU, FAHD1 / Fold change vs veh, FAHD1 / RFU, BDP1 / Fold change vs veh, BDP1 / RFU, LRRCC1 / Fold change vs veh, LRRCC1 / RFU, ARID1A / Fold change vs veh, ARID1A / RFU, ZNF146 / Fold change vs veh, ZNF146 / RFU, ZNF330 / Fold change vs veh, ZNF330 / RFU, GPN3 / Fold change vs veh, GPN3 / RFU, C9orf123 / Fold change vs veh, C9orf123 / RFU, N4BP2L2 / Fold change vs veh, N4BP2L2 / RFU, ARFIP1 / Fold change vs veh, ARFIP1 / RFU, FAM179B / Fold change vs veh, FAM179B / RFU, BCL10 / Fold change vs veh, BCL10 / RFU, UHRF1BP1L / Fold change vs veh, UHRF1BP1L / RFU, BET1 / Fold change vs veh, BET1 / RFU, CNOT2 / Fold change vs veh, CNOT2 / RFU, ZNF268 / Fold change vs veh, ZNF268 / Fold change vs veh, ZNF507 / RFU, DGCR2 / Fold change vs veh, DGCR2 / RFU, WDSUB1 / Fold change vs veh, WDSUB1 / Fold change vs veh, HSP90B1 /// MIR3652 / RFU, ADSS / Fold change vs veh, ADSS / RFU, GK / Fold change vs veh, GK / RFU, ZNF148 / Fold change vs veh, ZNF148 / RFU, TAF9 / Fold change vs veh, TAF9 / RFU, SLC1A5 / Fold change vs veh, SLC1A5 / RFU, SLMO2 / Fold change vs veh, SLMO2 / RFU, ABCC4 / Fold change vs veh, ABCC4 / RFU, LOC101060439 /// RAP1B / Fold change vs veh, LOC101060439 /// RAP1B / RFU, RFX7 / Fold change vs veh, RFX7 / RFU, GTPBP10 / Fold change vs veh, GTPBP10 / RFU, CNEP1R1 / Fold change vs veh, CNEP1R1 / RFU, BIVM-ERCC5 /// ERCC5 / Fold change vs veh, BIVM-ERCC5 /// ERCC5 / RFU, ILF3 / Fold change vs veh, ILF3 / RFU 11762660_at / Fold change /veh 11762660_at / RFU VCAN (11757783_s_at) / Fold change /veh VCAN (11757783_s_at) / RFU DDX43 (11728927_at) / Fold change /veh DDX43 (11728927_at) / RFU KRT8 (11758188_x_at) / Fold change /veh KRT8 (11758188_x_at) / RFU NKD1 (11759106_at) / Fold change /veh NKD1 (11759106_at) / RFU SRD5A1 (11742802_a_at) / Fold change /veh SRD5A1 (11742802_a_at) / RFU TPSAB1 /// TPSB2 (11721975_s_at) / Fold change /veh TPSAB1 /// TPSB2 (11721975_s_at) / RFU GSTM3 (11746129_a_at) / Fold change /veh GSTM3 (11746129_a_at) / RFU IL23R (11737362_x_at) / Fold change /veh IL23R (11737362_x_at) / RFU TMEM51 (11727254_a_at) / Fold change /veh TMEM51 (11727254_a_at) / RFU PIWIL2 (11732686_x_at) / Fold change /veh PIWIL2 (11732686_x_at) / RFU ORM1 (11744905_x_at) / Fold change /veh ORM1 (11744905_x_at) / RFU CCDC152 (11743942_at) / Fold change /veh CCDC152 (11743942_at) / RFU ECM1 (11717891_a_at) / Fold change /veh ECM1 (11717891_a_at) / RFU IL23R (11748794_a_at) / Fold change /veh IL23R (11748794_a_at) / RFU TNFAIP8L3 (11732012_x_at) / Fold change /veh TNFAIP8L3 (11732012_x_at) / RFU MBOAT4 (11741988_at) / Fold change /veh MBOAT4 (11741988_at) / RFU 11764193_at / Fold change /veh 11764193_at / RFU TMEM53 (11763286_at) / Fold change /veh TMEM53 (11763286_at) / RFU MAGEB2 (11727129_at) / Fold change /veh MAGEB2 (11727129_at) / RFU TMEM200A (11744735_a_at) / Fold change /veh TMEM200A (11744735_a_at) / RFU CCDC152 (11751479_a_at) / Fold change /veh CCDC152 (11751479_a_at) / RFU FAM211A (11726209_a_at) / Fold change /veh FAM211A (11726209_a_at) / RFU RGS16 (11746705_a_at) / Fold change /veh RGS16 (11746705_a_at) / RFU VCAN (11755009_s_at) / Fold change /veh VCAN (11755009_s_at) / RFU RHOB (11743442_s_at) / Fold change /veh RHOB (11743442_s_at) / RFU RGS16 (11720943_a_at) / Fold change /veh RGS16 (11720943_a_at) / RFU RGS16 (11720944_at) / Fold change /veh RGS16 (11720944_at) / RFU, VPS4B / Fold change vs veh, VPS4B / RFU, CREB1 / Fold change vs veh, CREB1 / RFU, DNAJC13 / Fold change vs veh, DNAJC13 / RFU, GNAQ / Fold change vs veh, GNAQ / RFU, CDK5R1 / Fold change vs veh, CDK5R1 / RFU, ZRANB3 / Fold change vs veh, ZRANB3 / RFU, CUL4A / Fold change vs veh, CUL4A / RFU, CCNY / Fold change vs veh, CCNY / RFU, UFL1 / Fold change vs veh, UFL1 / RFU, COG3 / Fold change vs veh, COG3 / RFU, DIAPH2 / Fold change vs veh, DIAPH2 / RFU, SKA2 / Fold change vs veh, SKA2 / RFU, AFF3 / Fold change vs veh, AFF3 / RFU, LMF1 / Fold change vs veh, LMF1 / RFU, IPO11 / Fold change vs veh, IPO11 / RFU, DFFB / Fold change vs veh, DFFB / RFU, FOXP1 / Fold change vs veh, FOXP1 / RFU, CARD8 / Fold change vs veh, CARD8 / RFU, STRN3 / Fold change vs veh, STRN3 / RFU, ADK / Fold change vs veh, ADK / RFU, RASSF2 / Fold change vs veh, RASSF2 / RFU, WIPF1 / Fold change vs veh, WIPF1 / RFU, LARP1B / Fold change vs veh, LARP1B / RFU, RASA1 / Fold change vs veh, RASA1 / RFU, RB1 / Fold change vs veh, RB1 / RFU, PPFIA1 / Fold change vs veh, PPFIA1 / RFU, MAT2A / Fold change vs veh, MAT2A / RFU, CCT5 / Fold change vs veh, CCT5 / RFU, WDR92 / Fold change vs veh, WDR92 / RFU, CUX1 / Fold change vs veh, CUX1 / RFU, TTC7A / Fold change vs veh, TTC7A / RFU, TMEM135 / Fold change vs veh, TMEM135 / RFU, DEPTOR / Fold change vs veh, DEPTOR / RFU, CPM / Fold change vs veh, CPM / RFU, DNAJB6 / Fold change vs veh, DNAJB6 / RFU, CACNA2D3 / Fold change vs veh, CACNA2D3 / RFU, DTX4 / Fold change vs veh, DTX4 / RFU, TFCP2 / Fold change vs veh, TFCP2 / RFU, GMCL1 /// GMCL1P1 / Fold change vs veh, GMCL1 /// GMCL1P1 / RFU, AEBP2 / Fold change vs veh, AEBP2 / RFU, SNHG1 /// SNORD22 /// SNORD25 /// SNORD26 /// SNORD27 /// SNORD28 /// SNORD29 /// SNORD31 / Fold change vs veh, SNHG1 /// SNORD22 /// SNORD25 /// SNORD26 /// SNORD27 /// SNORD28 /// SNORD29 /// SNORD31 / Fold change (Aza/veh), C12orf56 (ProbeSet 11735607_a_at) / Fold change (ACY-1035/veh), C12orf56 (ProbeSet 11735607_a_at) / Fold change (Aza/veh), FGFR1OP (ProbeSet 11751329_s_at) / Fold change (ACY-1035/veh), FGFR1OP (ProbeSet 11751329_s_at) / Fold change (Aza/veh), VPS36 (ProbeSet 11739960_a_at) / Fold change (ACY-1035/veh), VPS36 (ProbeSet 11739960_a_at) / RFU SYPL1 (11715823_x_at) / Fold change /veh SYPL1 (11715823_x_at) / RFU IGFBP7 (11715501_s_at) / Fold change /veh IGFBP7 (11715501_s_at) / RFU REEP3 (11722064_at) / Fold change /veh REEP3 (11722064_at) / RFU IGLL1 (11728026_x_at) / Fold change /veh IGLL1 (11728026_x_at): dose or concentration left out as unconfirmed
Settings: MV-4-11 cells, 48 hours

SMILES: Nc1ncn([C@@H]2O[C@H](CO)[C@@H](O)[C@H]2O)c(=O)n1 [azacitidine]
- RFU FAM211A (11726209_a_at): 7.10 RFU
